According to PMC9941834, “Histidine supplementation can escalate or rescue HARS deficiency in a Charcot–Marie–Tooth disease model” (Human Molecular Genetics, 2022):
Residue numbers refer to the chain shown, from its start.

Tests used:
Experiment in all cases: differential scanning fluorimetry (thermal shift)
Type in all cases: binding
[1] = target: T1, hsHARS (human histidyl-tRNA synthetase, HARS) (Homo sapiens, UniProt P12081, Y454S); conditions: 1 μM protein, apo mutant TM 50 ± 1.8 °C
T1 construct: gene HARS1; hsHARS gene in pDest527, 6x-His tag, E. coli BL21 Codon Plus, Ni-NTA purified; dimeric protein
T1 sequence (P12081 1-509 Y454S): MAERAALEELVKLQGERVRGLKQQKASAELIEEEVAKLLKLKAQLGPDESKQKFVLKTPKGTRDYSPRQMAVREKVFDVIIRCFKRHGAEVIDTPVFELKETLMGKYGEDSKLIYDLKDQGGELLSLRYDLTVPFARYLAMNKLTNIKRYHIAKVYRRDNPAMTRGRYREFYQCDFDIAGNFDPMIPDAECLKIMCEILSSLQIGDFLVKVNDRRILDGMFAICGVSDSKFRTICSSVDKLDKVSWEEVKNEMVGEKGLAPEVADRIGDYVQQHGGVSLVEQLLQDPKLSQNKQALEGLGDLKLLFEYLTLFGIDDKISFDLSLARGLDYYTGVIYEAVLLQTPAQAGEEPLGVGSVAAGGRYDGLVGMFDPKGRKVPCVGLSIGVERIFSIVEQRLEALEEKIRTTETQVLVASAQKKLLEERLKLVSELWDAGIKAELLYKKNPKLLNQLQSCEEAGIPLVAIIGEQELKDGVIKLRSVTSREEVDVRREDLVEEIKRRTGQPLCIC
Description: (§1) differential scanning fluorimetry (thermal shift) on […]

[2] = target: T2, hsHARS (human histidyl-tRNA synthetase, HARS) (Homo sapiens, UniProt P12081, V155G); conditions: 1 μM protein, apo mutant TM 59.8 ± 0.7 °C
T2 construct: gene HARS1; hsHARS gene in pDest527, 6x-His tag, E. coli BL21 Codon Plus, Ni-NTA purified; dimeric protein
T2 sequence (P12081 1-509 V155G): T1 sequence (P12081 1-509 Y454S) with V155G, S454Y
Description: as §1

[3] = target: T3, hsHARS (human histidyl-tRNA synthetase, HARS) (Homo sapiens, UniProt P12081, V133F); conditions: 500 μM ATP, 1 μM protein; apo mutant TM 52 ± 1.2 °C
T3 construct: gene HARS1; hsHARS gene in pDest527, 6x-His tag, E. coli BL21 Codon Plus, Ni-NTA purified; dimeric protein
T3 sequence (P12081 1-509 V133F): T1 sequence (P12081 1-509 Y454S) with V133F, S454Y
Description: differential scanning fluorimetry (thermal shift) on hsHARS (human histidyl-tRNA synthetase, HARS) | high ATP concentrations increase the thermal stability of HARS V133F to wild-type levels

TM [3] [°C]	TM ([1]; 1 mM histidine) [°C]	Structure (SMILES)	TM ([1]; 500 μM ATP)	TM ([2]; 500 μM ATP)	TM ([2]; 1 mM histidine)
63 ± 1.9		Nc1ncnc2c1ncn2[C@@H]1O[C@H](COP(=O)(O)OP(=O)(O)OP(=O)(O)O)[C@@H](O)[C@H]1O [ATP]	The addition of tRNA or ATP alone or in combination slightly increased stability	all substrate supplementations restored wild-type like levels of protein stability	
	57.8 ± 0.8	N[C@@H](Cc1cnc[nH]1)C(=O)O [histidine]			all substrate supplementations restored wild-type like levels of protein stability
